From patent publication US7772262B2, “Substituted benzoylguanidines, method for production and use thereof as medicament or diagnostic and medicament comprising the same” (sanofi-aventis Deutschland GmbH, priority 2004, dated 2010) come the findings set out here.

The target of one data set is T1, human NHE-1 (Homo sapiens, UniProt P19634).
T1 construct: expressed in transfected cells
The data set can be described thus: NHE-1 inhibition, FLIPR assay of pHi recovery in transfected cell lines. The class given is cell-based. The following applies: transfected LAP-1 cell line expressing human NHE-1, read-out: NHE1 inhibition IC50. Here is the method:
Determination of the NHE Inhibition
The inhibitory concentration IC50 for NHE-1 inhibition was determined as follows:
IC50 for NHE-1 inhibition was determined in an FLIPR assay by measurement of the pHi recovery in transfected cell lines which express human NHE-1.
The assay was carried out in an FLIPR (fluorometric imaging plate reader) with black-walled 96-well microtiter plates with clear bases.
The growth medium for the transfected cells (Iscove+10% fetal calf serum) additionally contained G418 as selection antibiotic in order to ensure the presence of the transfected sequences.
The actual assay started with the removal of the growth medium and addition of 100 μl of loading buffer per well (5 μM BCECF-AM [2′,7′-bis(carboxyethyl)-5- (and -6-)carboxyfluorescein, acetoxymethyl ester] in 20 mM NH4Cl, 115 mM choline chloride, 1 mM MgCl2, 1 mM CaCl2, 5 mM KCl, 20 mM HEPES, 5 mM glucose; pH 7.4 [adjusted with KOH]). The cells were then incubated at 37° C. for 20 minutes. This incubation led to loading of the cells with the fluorescent dye whose fluorescence intensity depends on pHi, and with NH4Cl which made the cells slightly alkaline.
The nonfluorescent dye precursor BCECF-AM is, as ester, membrane-permeable. The actual dye BCECF is not membrane-permeable but is liberated inside cells by esterases.
After this incubation for 20 minutes, the loading buffer which contained NH4Cl and free BCECF-AM was removed by washing three times in a cell washer (Tecan Columbus) with in each case 400 μl of washing buffer (133.8 mM choline chloride, 4.7 mM KCl, 1.25 mM MgCl2, 1.25 mM CaCl2, 0.97 mM K2HPO4, 0.23 mM KH2PO4, 5 mM HEPES, 5 mM glucose pH 7.4 [adjusted with KOH]). The residual volume which remained in the wells was 90 μl (50-125 μl possible). This washing step removed the free BCECF-AM and resulted, as a consequence of the removal of the external NH4^+ ions, in intracellular acidification (˜pHi 6.3-6.4).
This may eventually lead to cell death if it persists long enough.
It was important at this point that the washing buffer was sodium-free (<1 mM) because extracellular sodium ions would lead to an instantaneous recovery of the pHi through the activity of the cloned NHE isoforms. It was likewise important for all the buffers used (loading buffer, washing buffer, recovery buffer) not to contain any HCO3^− ions, because the presence of bicarbonate would lead to activation of interfering bicarbonate-dependent pHi regulatory systems present in the parental LAP-1 cell line.
The microtiter plates with the acidified cells were then (up to 20 minutes after the acidification) transferred to the FLIPR. In the FLIPR, the intracellular fluorescent dye was excited by light with a wavelength of 488 nm generated by an argon laser, and the measured parameters (laser power, illumination time and aperture of the CCD camera incorporated in the FLIPR) were chosen so that the average fluorescence signal per well was between 30 000 and 35 000 relative fluorescence units.
The actual measurement in the FLIPR started with a photograph being taken by the CCD camera every two seconds under software control. After ten seconds, the recovery of the intracellular pH was initiated by adding 90 μl of recovery buffer (133.8 mM NaCl, 4.7 mM KCl, 1.25 mM MgCl2, 1.25 mM CaCl2, 0.97 mM K2HPO4, 0.23 mM KH2PO4, 10 mM HEPES, 5 mM glucose; pH 7.4 [adjusted with NaOH]) by means of the 96-well pipettor incorporated in the FLIPR.
Positive control wells (100% NHE activity) were those to which pure recovery buffer is added, while negative controls (0% NHE activity) received washing buffer. Recovery buffer with twice the concentration of test substance was added to all the other wells. Measurement in the FLIPR terminated after 60 measurements (two minutes).
The raw data are exported into the ActivityBase program. This program firstly calculates the NHE activities for each tested substance concentration and, from these, the IC50 values for the substances. […]

Data set [1] is described as follows: In vivo pharmacokinetics, "n in one method", i.v. bolus in beagle dog. The following applies: iv; fasting male beagle dog, single i.v. bolus into jugular vein, about 1 mg/kg, plasma, co-administered (n in one). Here is the method: In vivo pharmacokinetics—profiling with the “n in one method”
The exposure data and the half-life were determined as characteristic pharmacokinetic data as follows:
The NHE-1 inhibitor of Example 9 of the invention and, as reference substance, the known NHE-1 inhibitor cariporide with the formula
[drawing 23] were dissolved in an aqueous, slightly acidic medium (water, pH 4, adjusted with 1M hydrochloric acid). The concentration of the aqueous formulation prepared in this way was about 1.5 mg of each substance per 1 g of solution. 10 ml of this formulation were administered as a single bolus by catheter into the jugular vein of a fasting male beagle dog (dose about 1 mg of each substance administered per kg of the dog's body weight). […]
The plasma samples were worked up and, after an HPLC separation, quantified by MS/MS. […] The exposures could be calculated using the WinNonlin computer program from the concentration-time plots (see FIG. 1) and compared with the exposure of the known NHE-1 reference substance. Since the various substances were measured in the same animal at the same time, the result was an accurate comparison of the compounds, and a ranking of the volumes of distribution was possible.

Where a name gives a salt, the structure may show the parent alone.

T1 sequence (P19634 whole entry): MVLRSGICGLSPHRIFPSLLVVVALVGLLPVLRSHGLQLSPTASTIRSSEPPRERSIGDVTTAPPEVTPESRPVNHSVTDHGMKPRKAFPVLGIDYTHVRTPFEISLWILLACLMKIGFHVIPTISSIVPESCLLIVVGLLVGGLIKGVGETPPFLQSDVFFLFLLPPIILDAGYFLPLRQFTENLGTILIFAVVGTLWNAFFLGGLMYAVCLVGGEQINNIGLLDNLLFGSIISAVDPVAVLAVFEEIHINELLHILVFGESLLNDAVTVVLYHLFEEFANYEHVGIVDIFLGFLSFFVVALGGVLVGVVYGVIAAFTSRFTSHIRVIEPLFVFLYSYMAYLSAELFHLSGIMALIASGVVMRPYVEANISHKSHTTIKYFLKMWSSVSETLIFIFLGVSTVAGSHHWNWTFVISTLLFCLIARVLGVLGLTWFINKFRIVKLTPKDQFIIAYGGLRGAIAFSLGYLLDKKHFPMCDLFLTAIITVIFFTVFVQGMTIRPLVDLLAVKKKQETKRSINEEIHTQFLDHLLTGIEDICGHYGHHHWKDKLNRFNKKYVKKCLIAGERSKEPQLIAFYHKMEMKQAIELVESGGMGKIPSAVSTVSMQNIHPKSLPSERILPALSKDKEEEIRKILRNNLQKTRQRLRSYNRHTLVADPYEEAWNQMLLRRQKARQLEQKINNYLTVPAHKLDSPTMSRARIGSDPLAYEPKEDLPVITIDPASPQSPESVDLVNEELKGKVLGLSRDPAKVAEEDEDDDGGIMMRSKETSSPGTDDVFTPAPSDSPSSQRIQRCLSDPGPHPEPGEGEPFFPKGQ

By IC50 is commonly meant the concentration at which inhibition is half-maximal. Take `Cc1cc(N2CC(c3ccccc3)CCS2(=O)=O)c(S(C)(=O)=O)cc1C(=O)N=C(N)N` (stereo not shown) [Example 10, N-[4-(1,1-Dioxo-4-phenyl-1-[1,2]thiazinan-2-yl)-5-methanesulfonyl-2-methylbenzoyl]guanidine]: the IC50 at human NHE-1 amounted to 51 nM.

As a reminder, the half-life is the time in which the quantity being followed falls by half. Consider `Cc1cc(N2CC(c3ccc(F)cc3)CS2(=O)=O)c(S(C)(=O)=O)cc1C(=O)N=C(N)N.Cl` (single isomer, unassigned; enantiomer b) [Example 9, N-{4-[4-(4-Fluorophenyl)-1,1-dioxoisothiazolidin-2-yl]-5-methanesulfonyl-2-methylbenzoyl}guanidine, hydrochloride, enantiomer B], for which the IC50 on human NHE-1 worked out at 23 nM. Also, the half-life in data set [1] is 4.6 h.

For the compound `Cc1cc(N2CCN(C3CC3)S2(=O)=O)c(S(C)(=O)=O)cc1C(=O)N=C(N)N` [Example 11, N-[4-(5-Cyclopropyl-1,1-dioxo-1-[1,2,5]thiadiazolidin-2-yl)-5-methanesulfonyl-2-methlbenzoyl]guanidine], the IC50 on human NHE-1 is 113 nM.

With `Cc1cc(N2CC(c3ccc(F)cc3)CS2(=O)=O)c(S(C)(=O)=O)cc1C(=O)N=C(N)N` (stereo not shown) [Example 7, N-{4-[4-(4-Fluorophenyl)-1,1-dioxoisothiazolidin-2-yl]-5-methanesulfonyl-2-methylbenzoyl}guanidine, hydrochloride], the IC50 on human NHE-1 amounted to 19 nM.

As to `Cc1cc(N2CC(c3ccc(F)cc3)CS2(=O)=O)c(S(C)(=O)=O)cc1C(=O)N=C(N)N` (single isomer, unassigned; enantiomer a) [Example 8, N-{4-[4-(4-Fluorophenyl)-1,1-dioxoisothiazolidin-2-yl]-5-methanesulfonyl-2-methlbenzoyl}guanidine, hydrochloride, enantiomer A], the IC50 on human NHE-1 is 12 nM.

Turning to `CC(C)c1ccc(C(=O)N=C(N)N)cc1S(C)(=O)=O.CS(=O)(=O)O` [cariporide, reference compound], the half-life in data set [1] was 3.3 h.

As to `Cc1cc(N2CCCS2(=O)=O)c(S(C)(=O)=O)cc1C(=O)N=C(N)N` [Example 1, N-[4-(1,1-Dioxoisothiazolidin-2-yl)-5-methanesulfonyl-2-methyl-benzoyl]guanidine], the IC50 on human NHE-1 was determined as 38 nM.

For `Cc1cc(N2CCCCS2(=O)=O)c(S(C)(=O)=O)cc1C(=O)N=C(N)N` [Example 2, N-[4-(1,1-Dioxo-[1,2]thiazinan-2-yl)-5-methanesulfonyl-2-methylbenzoyl]guanidine], the IC50 at human NHE-1 came to 144 nM.

As for `Cc1cc(N2CC(c3ccccc3)CS2(=O)=O)c(S(C)(=O)=O)cc1C(=O)N=C(N)N` (single isomer, unassigned; enantiomer b) [Example 6, N-[4-(1,1-Dioxo-4-phenylisothiazolidin-2-yl)-5-methanesulfonyl-2-methylbenzoyl]guanidine, hydrochloride, enantiomer B], the IC50 at human NHE-1 was 45 nM.

Regarding `Cc1cc(N2CC(c3ccccc3)CS2(=O)=O)c(S(C)(=O)=O)cc1C(=O)N=C(N)N` (stereo not shown) [Example 4, N-[4-(1,1-Dioxo-4-phenylisothiazolidin-2-yl)-5-methanesulfonyl-2-methylbenzoyl]guanidine, hydrochloride], the IC50 on human NHE-1 was found to be 6 nM.

`NC(N)=NC(=O)c1ccc(N2CCCCS2(=O)=O)c(C(F)(F)F)c1` [Example 14, N-[4-(1,1-Dioxo-1-[1,2]thiazinan-2-yl)-3-trifluoromethyl-benzoyl]guanidine]: on human NHE-1, the IC50 amounted to 13 nM.

Take `Cc1cc(N2CCCN(C3CC3)S2(=O)=O)c(S(C)(=O)=O)cc1C(=O)N=C(N)N` [Example 12, N-[4-(6-Cyclopropyl-1,1-dioxo-1-[1,2,6]thiadiazinan-2-yl)-5-methanesulfonyl-2-methlbenzoyl]guanidine]: on human NHE-1, the IC50 amounted to 1520 nM.

Consider `NC(N)=NC(=O)c1ccc(N2CCCS2(=O)=O)c(C(F)(F)F)c1` [Example 13, N-[4-(1,1-Dioxo-1-isothiazolidin-2-yl)-3-trifluoromethyl-benzoyl]guanidine], for which the IC50 on human NHE-1 worked out at 20 nM.

As for `Cc1cc(N2CC(c3ccccc3)CS2(=O)=O)c(S(C)(=O)=O)cc1C(=O)N=C(N)N` (single isomer, unassigned; enantiomer a) [Example 5, N-[4-(1,1-Dioxo-4-phenylisothiazolidin-2-yl)-5-methanesulfonyl-2-methylbenzoyl]guanidine, hydrochloride, enantiomer A], the IC50 on human NHE-1 worked out at 13 nM.

As to `Cc1cc(N2C(C)(C)CCS2(=O)=O)c(S(C)(=O)=O)cc1C(=O)N=C(N)N` [Example 3, N-[4-(3,3-Dimethyl-1,1-dioxoisothiazolidin-2-yl)-5-methanesulfonyl-2-methylbenzoyl]guanidine,], the IC50 at human NHE-1 turned out to be 195 nM.
